# According to US20070287752A1, “Ophthalmic Compositions Comprising A Branched, Glycerol Compound” (priority 2006, published 2007):
# What was measured:
# [1] = system: Pseudomonas aeruginosa (ATCC 9027); experiment: Preservative/disinfectant system efficacy testing (log reduction); assay type: cell-based
# Method: (§1) The ophthalmic compositions are evaluated in accordance with specific procedures outlined by the US Food & Drug Administration and the International Organization for Standardization for the testing of microbiocidal efficacy.
# [2] = system: Gram-positive bacteria such as Micrococcus luteus, Corynebacterium aquaticum, Corynebacteriumflavescens, Corynebacterium callunae, and Corynebacterium nephredi; settings: cited from earlier work
# [3] = system: Pseudomonas aeruginosa, Staphylococcus aureus, Serratia marcescens, Candida albicans and Fusarium solani; settings: biocidal data from Examples 1, 2 and 3
# Method: as §1
smiles,measurement,setting,value
"CCCCC(CC)COCC(O)CO (stereo not shown) [EHOPD, 3-[(2-ethylhexyl)oxy]-1,2-propanediol]",log reduction P. aeruginosa,"[1]; 1 hr, Table 5A multi-purpose lens care solution, 10% organic soil, disinfectant concentrations as in label",1.4
same,log reduction P. aeruginosa,"[1]; 1 hr, phosphate buffered saline, 10% organic soil, concentrations as in label (Table 4)",1.5
same,log reduction P. aeruginosa,"[1]; 4 hr, Table 5A multi-purpose lens care solution, 10% organic soil, disinfectant concentrations as in label",1.4
same,log reduction P. aeruginosa,"[1]; 4 hr, phosphate buffered saline, 10% organic soil, concentrations as in label (Table 4)",1.5
same,log reduction P. aeruginosa,"[1]; EHOPD 0.0001 wt %, 1 hr, borate buffered saline, 10% organic soil",1.5
same,log reduction P. aeruginosa,"[1]; EHOPD 0.0001 wt %, 1 hr, phosphate buffered saline, 10% Organic Soil",1.5
same,log reduction P. aeruginosa,"[1]; EHOPD 0.0001 wt %, 4 hr, borate buffered saline, 10% organic soil",1.5
same,log reduction P. aeruginosa,"[1]; EHOPD 0.0001 wt %, 4 hr, phosphate buffered saline, 10% Organic Soil",1.5
same,log reduction P. aeruginosa,"[1]; EHOPD 0.001 wt %, 1 hr, borate buffered saline, 10% organic soil",1.5
same,log reduction P. aeruginosa,"[1]; EHOPD 0.001 wt %, 1 hr, phosphate buffered saline, 10% Organic Soil",1.5
same,log reduction P. aeruginosa,"[1]; EHOPD 0.001 wt %, 4 hr, borate buffered saline, 10% organic soil",1.5
same,log reduction P. aeruginosa,"[1]; EHOPD 0.001 wt %, 4 hr, phosphate buffered saline, 10% Organic Soil",1.5
same,log reduction P. aeruginosa,"[1]; EHOPD 0.01 wt %, 1 hr, Table 3A multi-purpose lens care formulation, 10% organic soil",1.9
same,log reduction P. aeruginosa,"[1]; EHOPD 0.01 wt %, 1 hr, borate buffered saline, 10% organic soil",2.6
same,log reduction P. aeruginosa,"[1]; EHOPD 0.01 wt %, 1 hr, phosphate buffered saline, 10% Organic Soil",1.5
same,log reduction P. aeruginosa,"[1]; EHOPD 0.01 wt %, 4 hr, Table 3A multi-purpose lens care formulation, 10% organic soil",1.9
same,log reduction P. aeruginosa,"[1]; EHOPD 0.01 wt %, 4 hr, borate buffered saline, 10% organic soil",>5.0
same,log reduction P. aeruginosa,"[1]; EHOPD 0.01 wt %, 4 hr, phosphate buffered saline, 10% Organic Soil",1.5
same,log reduction P. aeruginosa,"[1]; EHOPD 0.1 wt %, 1 hr, Table 3A multi-purpose lens care formulation, 10% organic soil",>5.4
same,log reduction P. aeruginosa,"[1]; EHOPD 0.1 wt %, 1 hr, borate buffered saline, 10% organic soil",>5.0
same,log reduction P. aeruginosa,"[1]; EHOPD 0.1 wt %, 1 hr, phosphate buffered saline, 10% Organic Soil",1.5
same,log reduction P. aeruginosa,"[1]; EHOPD 0.1 wt %, 4 hr, Table 3A multi-purpose lens care formulation, 10% organic soil",>5.4
same,log reduction P. aeruginosa,"[1]; EHOPD 0.1 wt %, 4 hr, borate buffered saline, 10% organic soil",>5.0
same,log reduction P. aeruginosa,"[1]; EHOPD 0.1 wt %, 4 hr, phosphate buffered saline, 10% Organic Soil",3.7
same,log reduction P. aeruginosa,"[1]; EHOPD 0.15 wt %, 1 hr, Table 3A multi-purpose lens care formulation, 10% organic soil",>5.4
same,log reduction P. aeruginosa,"[1]; EHOPD 0.15 wt %, 4 hr, Table 3A multi-purpose lens care formulation, 10% organic soil",>5.4
same,log reduction P. aeruginosa,"[1]; EHOPD 0.25 wt %, 1 hr, Table 3A multi-purpose lens care formulation, 10% organic soil",>5.4
same,log reduction P. aeruginosa,"[1]; EHOPD 0.25 wt %, 4 hr, Table 3A multi-purpose lens care formulation, 10% organic soil",>5.4
same,log reduction P. aeruginosa,"[1]; EHOPD 0.50 wt %, 1 hr, Table 3A multi-purpose lens care formulation, 10% organic soil",>5.4
same,log reduction P. aeruginosa,"[1]; EHOPD 0.5 wt %, 1 hr, borate buffered saline, 10% organic soil",>5.0
same,log reduction P. aeruginosa,"[1]; EHOPD 0.5 wt %, 1 hr, phosphate buffered saline, 10% Organic Soil",1.5
same,log reduction P. aeruginosa,"[1]; EHOPD 0.50 wt %, 4 hr, Table 3A multi-purpose lens care formulation, 10% organic soil",>5.4
same,log reduction P. aeruginosa,"[1]; EHOPD 0.5 wt %, 4 hr, borate buffered saline, 10% organic soil",>5.0
same,log reduction P. aeruginosa,"[1]; EHOPD 0.5 wt %, 4 hr, phosphate buffered saline, 10% Organic Soil",4.1
same,log reduction P. aeruginosa,"[1]; EHOPD 0.75 wt %, 1 hr, Table 3A multi-purpose lens care formulation, 10% organic soil",>5.4
same,log reduction P. aeruginosa,"[1]; EHOPD 0.75 wt %, 4 hr, Table 3A multi-purpose lens care formulation, 10% organic soil",>5.4
same,log reduction P. aeruginosa,"[1]; EHOPD 1.0 wt %, 1 hr, Table 3A multi-purpose lens care formulation, 10% organic soil",>5.4
same,log reduction P. aeruginosa,"[1]; EHOPD 1.0 wt %, 4 hr, Table 3A multi-purpose lens care formulation, 10% organic soil",>5.4
same,"antimicrobial activity (known, in words)",[2],exhibit antimicrobial activity against a variety of Gram-positive bacteria
same,biocidal activity (in words),[3],significant activity against all of the microorganisms in the study
